Assay results published in US20020086278A1, “CHROMOGENIC MEDIA CONTAINING BLOOD OR HEMIN” (priority 1999, published 2002).
Counter-ions that a name gives are not always drawn. Like-named read-outs stand apart in the source and are kept apart here.

How the values were obtained:
[1] = test system: Citrobacter freundii (cifr); test: Example 3: colony color on chromogenic TSA II with 5% sheep blood (chromogen in medium); format: cell-based; conditions: for Colony Color (Summary): chromogenic TSA II with 5% Sheep Blood, 0.1 g/l, 2 strains tested; for Colony Color: CO2
[2] = test system: S. agalactiae 12386; test: Example 2: effect of incubation conditions on colony color formation; format: cell-based, Streptococcus agalactiae
[3] = test system: Branhamella catarrhalis 25238; test: Example 1: growth and colony color on plates surface-spread with chromogen; format: cell-based; conditions: for Growth: B. catt 25258
[4] = test system: E. faecium (enfu); test: Example 3: colony color on chromogenic TSA II with 5% sheep blood (chromogen in medium); format: cell-based; conditions: for Colony Color (Summary): chromogenic TSA II with 5% Sheep Blood, 0.1 g/l, 1 strain tested
[5] = test system: Group D Strep / Enterococcus; test: as above; conditions: 7 of 7 strains
[6] = test system: cakr 34135; test: as above; format: cell-based
[7] = test system: S. pneumoniae 6303; test: Example 2: effect of incubation conditions on colony color formation; format: cell-based, Streptococcus pneumoniae; conditions: TSA II 5% Sheep Blood, 0.004 g/plate; 24 h, CO2
[8] = test system: S. mitis 6249; test: as above; format: cell-based, Streptococcus mitis; conditions: TSA II 5% Sheep Blood, 0.004 g/plate; 24 h, CO2
[9] = test system: C. perfringens 13124; format: cell-based, Clostridium perfringens; conditions: TSA II 5% Sheep Blood, 0.004 g/plate; 5 d, ANA
[10] = test system: Neisseria meningitidis 13090; test: Example 1: growth and colony color on plates surface-spread with chromogen; format: cell-based
[11] = test system: H. influenzae 35540; test: Example 2: effect of incubation conditions on colony color formation; format: cell-based
[12] = test system: N. sicca 29193; test: as above; format: cell-based
[13] = test system: H. influenzae 10211; test: as above; format: cell-based
[14] = test system: bacterial test strains of Example 1; test: Example 1: inhibitory effect over all test strains; format: cell-based; conditions: Example 1, all test strains
[15] = test system: Haemophilus influenzae 35540; test: Example 1: growth and colony color on plates surface-spread with chromogen; format: cell-based; conditions: for Color: Substrate on Choclate II Agar, H. influ. 35540
[16] = test system: Staphylococcus aureus 25923; test: as above; format: cell-based; conditions: S. aureus 25923
[17] = test system: Haemophilus influenzae 10211; test: as above; format: cell-based; conditions: Substrate on Choclate II Agar, H. influ. 10211
[18] = test system: S. aureus 25923; test: Example 2: effect of incubation conditions on colony color formation; format: cell-based, Staphylococcus aureus
[19] = test system: S. epidermidis 12228; test: Example 1: growth and colony color on plates surface-spread with chromogen; format: cell-based; conditions: for Color: S. epi 12228
[20] = Solubility of chromogen in DMSO; format: physicochemical; conditions: 0.08g in 1.0 ml DMSO
Description: In this series of experiments, 0.08g of each chromogen indicated below was added to 1.0 ml DMSO and thoroughly mixed.

[21] = test system: N. meningitidis 13090; format: cell-based; conditions: Chocolate II Agar, 0.004 g/plate; 24 h, CO2
[22] = test system: N. sicca 29193; test: Example 1: growth and colony color on plates surface-spread with chromogen; format: cell-based
[23] = test system: S. epidermidis 12228; test: Example 2: effect of incubation conditions on colony color formation; format: cell-based, Staphylococcus epidermidis
[24] = test system: S. agalactiae 13813; test: as above; format: cell-based, Streptococcus agalactiae; conditions: 0.004 g/plate, 24 h, CO2
[25] = test system: Strep Grp G 12394; test: as above; format: cell-based, Streptococcus group G; conditions: 0.004 g/plate, 24 h, CO2
[26] = test system: S. agalactiae BD11586; test: as above; format: cell-based, Streptococcus agalactiae; conditions: Chocolate II Agar, 0.004 g/plate; 24 h, CO2
[27] = test system: S. agalactiae BD747; test: as above; format: cell-based, Streptococcus agalactiae; conditions: 0.004 g/plate, 24 h, CO2
[28] = test system: Strep Grp G 27961; test: as above; format: cell-based, Streptococcus group G; conditions: 0.004 g/plate, 24 h, CO2
[29] = test system: S. agalactiae 4768; test: as above; format: cell-based, Streptococcus agalactiae; conditions: 0.004 g/plate, 24 h, CO2
[30] = test system: S. agalactiae 6638; test: as above; format: cell-based, Streptococcus agalactiae; conditions: 0.004 g/plate, 24 h, CO2
[31] = test system: Strep Grp C 12388; test: as above; format: cell-based, Streptococcus group C; conditions: 0.004 g/plate, 24 h, CO2
[32] = test system: 55 strains; test: Example 3: color, hemolytic activity and growth over all 55 strains; format: cell-based; conditions: Gram-positives
Source text: Steers, E. et al., Antibiot.

[33] = Chocolate II Agar, 0.004 g/plate, 24 h, CO2
[34] = TSA II 5% Sheep Blood, 0.004 g/plate, 24 h, CO2
[35] = Substrate on Choclate II Agar, N. mening. 13090

With `OC[C@H]1O[C@@H](Oc2c[nH]c3ccc(Br)c(Cl)c23)[C@H](O)[C@@H](O)[C@@H]1O` [X-Glucoside, 5-Br-4-Cl-3-indolyl-β-D-glucopyranoside] the “Colony Color (Summary)” value [1] was 0, the “Colony Color” value ([1]; cifr 8454, 18 h) was 0 and the “Colony Color” value ([1]; cifr 8454, 21 h) was 0. For the same compound, the “Colony Color” value ([1]; cifr 33128, 18 h) was 0, the “Colony Color” value ([1]; cifr 33128, 21 h) was 0 and the Colony Color [2, 33] was “blue (d)”. For the same compound, the Colony Color [2, 34] was “blue (d)”, the Growth ([3]; TSA Plain) was “<” and the “Colony Color (Summary)” value [4] was “+”. The “Colony Color” value ([4]; enfu 49032, CO2, 18 h) was “db”, the Colony Color [5] was “blue” and the “Colony Color” value ([6]; CO2, 18 h) was 0. For the same compound, the “Colony Color” value ([6]; CO2, 21 h) was 0.
For `CC(=O)N[C@H]1[C@H](Oc2c[nH]c3ccc(Br)c(Cl)c23)O[C@H](CO)[C@H](O)[C@@H]1O` [X-Acglmn, 5-Br-4-Cl-3-indolyl-N-Acetyl-β-D-galactosaminide], the Colony Color [7] was “blue (l)”, the “Colony Color (Summary)” value [1] was 0 and the “Colony Color” value ([1]; cifr 8454, 18 h) was 0. The “Colony Color” value ([1]; cifr 8454, 21 h) was 0, the “Colony Color” value ([1]; cifr 33128, 18 h) was 0 and the “Colony Color” value ([1]; cifr 33128, 21 h) was 0. For the same compound, the Colony Color [8] was “blue (vl)”, the Colony Color [9] was “blue (l)” and the “Colony Color (Summary)” value [4] was “+”. For the same compound, the “Colony Color” value ([4]; enfu 49032, CO2, 18 h) was “lb”, the “Colony Color” value ([4]; enfu 49032, CO2, 21 h) was “db” and the “Colony Color” value ([4]; enfu 49032, air, 21 h) was “lb”. For the same compound, the Growth [10, 35] was “<”, the “Substrates Producing Growth Inhibition” value ([10]; Summary of Table I, N. meningitidis 13090) was “Slight inhib w/ X-” and the Colony Color [5] was “dark blue”. The “Colony Color” value ([6]; CO2, 18 h) was 0 and the “Colony Color” value ([6]; CO2, 21 h) was 0.
In the case of `O=P(O)(O)Oc1c[nH]c2cc(Cl)c(Br)cc12` [Mag-Phos, 5-Br-6-Cl-3-indolyl-phosphate, p-touidine salt], the Colony Color [11] is reported as “purple (m)”, the Colony Color [12] is reported as “purple (m)” and the Colony Color [13] is reported as “purple (m)”. The “Colony Color (Summary)” value [1] was 0, the “Colony Color” value ([1]; cifr 8454, 21 h) was 0 and the “Colony Color” value ([1]; cifr 33128, 21 h) was 0. The Inhibitory effect [14] was “most inhibitory effect”, the Colony Color [2] was “purple (m)” and the Color [15] was “purple”. For the same compound, the Color ([15]; listed as Mag-phos) was “dark purple”, the “Substrates Producing Color” value ([15]; Summary of Table I, H. influenzae 35540, 10211) was “Mag-phos” and the Color ([16]; Choc II) was “purple”. For the same compound, the “Substrates Producing Color” value ([16]; Summary of Table I) was “Mag-phos”, the Color ([16]; TSA II 5SB) was “purple” and the Color ([16]; TSA Plain) was “purple”. For the same compound, the Color [17] was “purple”, the Color ([17]; listed as Mag-phos) was “dark purple” and the “Substrates Producing Growth Inhibition” value ([3]; Summary of Table I, B. catarrhalis 25238) was “Mag-Phos”. The Growth ([3]; TSA II 5SB) was “<<”, the Colony Color [18] was “purple (m)” and the Color ([19]; Choc II) was “purple”. For the same compound, the “Substrates Producing Color” value ([19]; Summary of Table I, S. epidermidis 12228) was “Mag-phos”, the Color ([19]; TSA II 5SB) was “purple” and the Color ([19]; TSA Plain) was “purple”. For the same compound, the “Colony Color (Summary)” value [4] was “+”, the “Colony Color” value ([4]; enfu 49032, CO2, 21 h) was “vlgp” and the “Colony Color” value ([4]; enfu 49032, air, 21 h) was “lgp”. For the same compound, the “Solubility / appearance of solution in DMSO” value [20] was “clear and light orange in color”, the Growth [10] was “= NC” and the Color [10, 35] was “colorless”. For the same compound, the Colony Color [21] was “NC (col”, the Color ([22]; Substrate on Choclate II Agar, N. sicca. 29193) was “purple” and the “Substrates Producing Color” value ([22]; Summary of Table I, N. sicca 29193) was “Mag-phos”. For the same compound, the Colony Color [23] was “purple (m)” and the “Colony Color” value ([6]; CO2, 21 h) was “lgp”.
In the case of `O=C(O)[C@H]1O[C@@H](Oc2c[nH]c3ccc(Br)c(Cl)c23)[C@H](O)[C@@H](O)[C@@H]1O` [X-Glucuro, X-Glucuronide], the Colony Color ([24]; Chocolate II Agar) is reported as “blue (d)”, the Colony Color ([24]; TSA II 5% Sheep Blood) is reported as “blue (d)” and the “Colony Color (Summary)” value [1] is reported as 0. The “Colony Color” value ([1]; cifr 8454, 18 h) was 0, the “Colony Color” value ([1]; cifr 33128, 18 h) was 0 and the Colony Color [2, 33] was “blue (d)”. For the same compound, the Colony Color [2, 34] was “blue (d)”, the Colony Color ([25]; Chocolate II Agar) was “blue (d)” and the Colony Color ([25]; TSA II 5% Sheep Blood) was “grey blue”. The Growth ([3]; TSA Plain) was “>>”, the Colony Color [26] was “blue (vl)” and the Colony Color ([27]; Chocolate II Agar) was “blue (l)”. For the same compound, the Colony Color ([27]; TSA II 5% Sheep Blood) was “grey blue”, the Colony Color ([28]; Chocolate II Agar) was “blue (d)” and the Colony Color ([28]; TSA II 5% Sheep Blood) was “blue (d)”. The Colony Color ([29]; Chocolate II Agar) was “blue (l)”, the Colony Color ([29]; TSA II 5% Sheep Blood) was “blue (l)” and the Colony Color ([30]; Chocolate II Agar) was “blue (m)”. The Colony Color ([30]; TSA II 5% Sheep Blood) was “blue (m)”, the “Colony Color (Summary)” value [4] was 0 and the “Colony Color” value ([4]; enfu 49032, CO2, 18 h) was 0. The Colony Color ([31]; Chocolate II Agar) was “blue (d)”, the Colony Color ([31]; TSA II 5% Sheep Blood) was “blue (d)” and the “Colony Color” value ([6]; CO2, 18 h) was 0.
With `OC[C@H]1O[C@@H](Oc2c[nH]c3ccc(Br)c(Cl)c23)[C@H](O)[C@@H](O)[C@H]1O` [X-Gal, 5-Br-4-Cl-3-indolyl-β-D-galactopyranoside] the Colony Color [7] was “blue (l)”, the “Colony Color (Summary)” value [1] was “+” and the “Colony Color” value ([1]; cifr 8454, 21 h) was “gb”. For the same compound, the “Colony Color” value ([1]; cifr 33128, 21 h) was “gb”, the “Usefulness for Gram-positives” value [32] was “not particularly useful” and the Colony Color [9] was “blue (m)”. For the same compound, the Colony Color ([4]; E. faecium (ATCC 49032)) was “dark blue”, the “Colony Color (Summary)” value [4] was “+” and the “Colony Color” value ([4]; enfu 49032, CO2, 21 h) was “gb”. For the same compound, the “Colony Color” value ([4]; enfu 49032, air, 21 h) was “db” and the “Colony Color” value ([6]; CO2, 21 h) was 0.
